According to ChEMBL document CHEMBL1121785, “Comparison of solution conformational preferences for the hallucinogens bufotenin and psilocin using 360-MHz proton NMR spectroscopy” (J Med Chem, 1981):

Tests used:
Format in all cases: physicochemical
[1] = Partition coefficient of octanol and water was determined
[2] = Partition coefficient (logP); details: octanol/water
[3] = True partition coefficient corrected for ionization was determined; details: octanol/water

## CN(C)CCc1c[nH]c2ccc(O)cc12 [BUFOTENINE]
[1]
  Poct: 0.16
[2]
  logP: 1.19

## CN(C)CCc1c[nH]c2cccc(O)c12 [PSILOCIN]
[1]
  Poct: 0.68
[3]
  pKa: 3.3
[2]
  logP: 1.45
